Assay results from US9540323B2 (BRISTOL-MYERS SQUIBB COMPANY, priority 2012, dated 2017).

Tests used:
[1] = molecular target: cloned human P2Y1 receptors (Homo sapiens (Human), UniProt P47900); test: Binding Assay B - Scintillation Proximity Assay (SPA) for P2Y1 binding, [33P] 2MeS-ADP; settings: SPA, 0.3 nM [33P] 2MeS-ADP, Cheng-Prusoff; read-out: P2Y1 Ki (nM) using binding assay B
Procedure: Binding Assay B—Scintillation Proximity Assay (SPA) for P2Y1 Binding
A SPA membrane binding assay was used to identify inhibitors of [^33P] […] Reactions were allowed to proceed to completion at room temperature for 1 hour followed by centrifugation of the plate for 5 min. About 40 μL of the aqueous solution was aspirated. Plates were sealed and the [^33P]

[2] = tested on: human platelet rich plasma (PRP); test: ADP induced platelet aggregation assay; settings: Homo sapiens, Platelet, 5 min, read-out: PA IC50 (μM) @ 10 μM ADP, human PRP, 10 μM ADP, AUC at 5 minute

Sequence of cloned human P2Y1 receptors (P47900 whole entry): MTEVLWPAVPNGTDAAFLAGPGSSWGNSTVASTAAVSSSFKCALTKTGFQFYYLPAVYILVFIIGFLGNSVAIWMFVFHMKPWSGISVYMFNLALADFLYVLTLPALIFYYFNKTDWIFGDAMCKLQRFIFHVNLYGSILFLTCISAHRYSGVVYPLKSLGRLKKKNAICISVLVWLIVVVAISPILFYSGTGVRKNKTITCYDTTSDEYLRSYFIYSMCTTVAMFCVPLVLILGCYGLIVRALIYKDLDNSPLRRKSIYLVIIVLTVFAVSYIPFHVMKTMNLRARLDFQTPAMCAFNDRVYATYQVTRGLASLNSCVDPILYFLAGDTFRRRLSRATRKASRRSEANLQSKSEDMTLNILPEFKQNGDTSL

Row | Structure (SMILES) | Ki [1] | IC50 [2]
1 | CC(C)CCn1cc(-c2c(F)cc(O)c3c2C(C)(C)CN3c2ccccc2NC(=O)Nc2ccc(OC(F)(F)F)cc2)cn1 [Example 185, 1-(2-(5-Fluoro-7-hydroxy-4-(1-isopentyl-1H-pyrazol-4-yl)-3,3-dimethylindolin-1-yl)phenyl)-3-(4-(trifluoromethoxy)phenyl)urea] | 13.3 nM | 0.16 µM
2 | Cc1c(-c2c(F)cc(O)c3c2C(C)(C)CN3c2ccccc2NC(=O)Nc2ccc(OC(F)(F)F)cc2)cnn1-c1ccccc1 [Example 186, 1-(2-(5-Fluoro-7-hydroxy-3,3-dimethyl-4-(5-methyl-1-phenyl-1H-pyrazol-4-yl)indolin-1-yl)phenyl)-3-(4-(trifluoromethoxy)phenyl)urea] | 17.6 nM | 0.67 µM
3 | Cc1nn(C)c(C)c1-c1c(F)cc(O)c2c1C(C)(C)CN2c1ccccc1NC(=O)Nc1ccc(OC(F)(F)F)cc1 [Example 187, 1-(2-(5-Fluoro-7-hydroxy-3,3-dimethyl-4-(1,3,5-trimethyl-1H-pyrazol-4-yl)indolin-1-yl)phenyl)-3-(4-(trifluoromethoxy)phenyl)urea] | 19.2 nM | 1.07 µM
4 | CC1(C)CN(c2ccccc2NC(=O)Nc2ccc(OC(F)(F)F)cc2)c2c(O)cc(F)c(-c3ccc(F)nc3)c21 [Example 188, 1-(2-(5-Fluoro-4-(6-fluoropyridin-3-yl)-7-hydroxy-3,3-dimethylindolin-1-yl)phenyl)-3-(4-(trifluoromethoxy)phenyl)urea] | 4.7 nM | 0.38 µM
5 | CSc1ncc(-c2c(F)cc(O)c3c2C(C)(C)CN3c2ccccc2NC(=O)Nc2ccc(OC(F)(F)F)cc2)cn1 [Example 189, 1-(2-(5-Fluoro-7-hydroxy-3,3-dimethyl-4-(2-(methylthio)pyrimidin-5-yl)indolin-1-yl)phenyl)-3-(4-(trifluoromethoxy)phenyl)urea] | 7.2 nM | 0.25 µM
6 | CC1(C)CN(c2ccccc2NC(=O)Nc2ccc(OC(F)(F)F)cc2)c2c(O)cc(F)c(-c3ccnc(F)c3)c21 [Example 190, 1-(2-(5-Fluoro-4-(2-fluoropyridin-4-yl)-7-hydroxy-3,3-dimethylindolin-1-yl)phenyl)-3-(4-(trifluoromethoxy)phenyl)urea] | 10.6 nM | 0.48 µM
7 | Cc1cc(-c2c(F)cc(O)c3c2C(C)(C)CN3c2ccccc2NC(=O)Nc2ccc(OC(F)(F)F)cc2)ccn1 [Example 191, 1-(2-(5-Fluoro-7-hydroxy-3,3-dimethyl-4-(2-methylpyridin-4-yl)indolin-1-yl)phenyl)-3-(4-(trifluoromethoxy)phenyl)urea] | 12.3 nM | 0.19 µM
8 | Cc1cc(-c2c(F)cc(O)c3c2C(C)(C)CN3c2ccccc2NC(=O)Nc2ccc(OC(F)(F)F)cc2)cnc1F [Example 192, 1-(2-(5-Fluoro-4-(6-fluoro-5-methylpyridin-3-yl)-7-hydroxy-3,3-dimethylindolin-1-yl)phenyl)-3-(4-(trifluoromethoxy)phenyl)urea] | 8.8 nM | 0.26 µM
9 | CC1(C)CN(c2ccccc2NC(=O)Nc2ccc(OC(F)(F)F)cc2)c2c(O)ccc(-c3ccc(F)cc3)c21 [Example 193, 1-(2-(4-(4-Fluorophenyl)-7-hydroxy-3,3-dimethylindolin-1-yl)phenyl)-3-(4-(trifluoromethoxy)phenyl)urea] | 6.9 nM | 0.12 µM
10 | CC1(C)CN(c2ccccc2NC(=O)Nc2ccc(OC(F)(F)F)cc2)c2c(O)cc(F)c(-c3ccc(F)cc3)c21 [Example 194, 1-(2-(5-Fluoro-4-(4-fluorophenyl)-7-hydroxy-3,3-dimethylindolin-1-yl)phenyl)-3-(4-(trifluoromethoxy)phenyl)urea] | 6.7 nM | 0.26 µM
11 | CC1(C)CN(c2ccccc2NC(=O)Nc2ccc(OC(F)(F)F)cc2)c2c(O)ccc(-c3ccccc3)c21 [Example 195, 1-(2-(7-Hydroxy-3,3-dimethyl-4-phenylindolin-1-yl)phenyl)-3-(4-(trifluoromethoxy)phenyl)urea] | 9 nM | 0.18 µM
12 | CC1(C)CN(c2ccccc2NC(=O)Nc2ccc(OC(F)(F)F)cc2)c2c(O)ccc(-c3ccc(C(F)(F)F)cc3)c21 [Example 196, 1-(2-(7-Hydroxy-3,3-dimethyl 4-(4-(trifluoromethyl)phenyl)indolin-1-yl)phenyl)-3-(4-(trifluoromethoxy)phenyl)urea] | 8 nM | 0.23 µM
13 | CC1(C)CN(c2ccccc2NC(=O)Nc2ccc(OC(F)(F)F)cc2)c2c(O)ccc(-c3cc(F)cc(F)c3)c21 [Example 197, 1-(2-(4-(3,5-Difluorophenyl)-7-hydroxy-3,3-dimethylindolin-1-yl)phenyl)-3-(4-(trifluoromethoxy)phenyl)urea] | 5.1 nM | 0.18 µM
14 | CC1(C)CN(c2ccccc2NC(=O)Nc2csc(Cl)n2)c2c(O)ccc(-c3ccc(F)cc3)c21 [Example 198, 1-(2-Chlorothiazol-4-yl)-3-(2-(4-(4-fluorophenyl)-7-hydroxy-3,3-dimethylindolin-1-yl)phenyl)urea] | 4.9 nM | 0.09 µM
15 | CC1(C)CN(c2ccccc2NC(=O)Nc2nc3ccc(Cl)cc3s2)c2c(O)ccc(-c3ccc(F)cc3)c21 [Example 199, 1-(6-Chlorobenzo[d]thiazol-2-yl)-3-(2-(4-(4-fluorophenyl)-7-hydroxy-3,3-dimethylindolin-1-yl)phenyl)urea] | 10.1 nM | 0.18 µM
16 | CC(C)CN1CCCC1c1ccc(NC(=O)Nc2ccccc2N2CC(C)(C)c3c(-c4ccc(F)cc4)ccc(O)c32)cc1 (stereo not drawn) [Example 200, 1-(2-(4-(4-Fluorophenyl)-7-hydroxy-3,3-dimethylindolin-1-yl)phenyl)-3-(4-(1-isobutylpyrrolidin-2-yl)phenyl)urea] | 4.6 nM | 0.05 µM
17 | Cc1nc(NC(=O)Nc2ccccc2N2CC(C)(C)c3c(-c4ccc(F)cc4)ccc(O)c32)cs1 [Example 201, 1-(2-(4-(4-Fluorophenyl)-7-hydroxy-3,3-dimethylindolin-1-yl)phenyl)-3-(2-methylthiazol-4-yl)urea] | 5.8 nM | 0.43 µM
18 | CC(C)(C)CN1CCCC1c1ccc(NC(=O)Nc2ccccc2N2CC(C)(C)c3c(-c4ccc(F)cc4)ccc(O)c32)cc1 (stereo not drawn) [Example 202, 1-(2-(4-(4-Fluorophenyl)-7-hydroxy-3,3-dimethylindolin-1-yl)phenyl)-3-(4-(1-neopentylpyrrolidin-2-yl)phenyl)urea] | 5.7 nM | 0.09 µM
19 | CC1(C)CN(c2ccccc2NC(=O)Nc2ccc(OC(F)(F)F)cc2)c2c(O)ccc(-c3ccc(F)cc3F)c21 [Example 203, 1-(2-(4-(2,4-Difluorophenyl)-7-hydroxy-3,3-dimethylindolin-1-yl)phenyl)-3-(4-(trifluoromethoxy)phenyl)urea] | 8 nM | 0.16 µM
20 | CC1(C)CN(c2ccccc2NC(=O)Nc2ccc(OC(F)(F)F)cc2)c2c(O)ccc(-c3ccc(F)c(F)c3)c21 [Example 204, 1-(2-(4-(3,4-Difluorophenyl)-7-hydroxy-3,3-dimethylindolin-1-yl)phenyl)-3-(4-(trifluoromethoxy)phenyl)urea] | 7.7 nM | 0.4 µM
21 | CC1(C)CN(c2ccccc2NC(=O)Nc2ccc(OC(F)(F)F)cc2)c2c(O)ccc(-c3ccc(Cl)cc3)c21 [Example 205, 1-(2-(4-(4-Chlorophenyl)-7-hydroxy-3,3-dimethylindolin-1-yl)phenyl)-3-(4-(trifluoromethoxy)phenyl)urea] | 6.7 nM | 0.14 µM
